Marks after values point to notes of the source that are not given here. Square brackets hold non-standard residues; d marks the D form. Ends that are not written are not given here. Hyp = O=C(O)[C@@H]1C[C@@H](O)CN1
Columns and labels:
[1] = test system: D93 binding to human denatured-collagen IV; test: Competition ELISA: synthetic peptides blocking D93 binding to heat denatured collagen IV
Description: (§1) The ELISA was conducted as follows: wells of a 96-well microtiter plate (Immulon, 4 HBX flat-bottomed, Thermo Electron Corporation, Waltham, Mass.) were coated with 100 μL/well of dn-collagen IV at 10 μg/mL in Phosphate Buffered Saline (PBS) overnight at 4° C. The plate was washed 3 times (3×) with PBS containing 0.05% (v/v) Tween-20 (PBST) using an automated plate washer.
(§2) The plate was blocked by adding 300 μL/well of 1% BSA (w/v) in PBS for 1 hour at 25° C. followed by washing 3× in PBST as above.
(§3) Solutions of D93 or HUI77 were prepared with various concentrations of peptide or antibody inhibitor and incubate for 15 minutes. D93 or HUI77 was prepared at 200 ng/mL in 1% BSA/PBS.
(§4) For antibody blocking studies using synthetic peptides: peptide inhibitor stock solutions were prepared at 2 mM, 0.2 mM, 0.02 mM, and 0.002 mM in 1% BSA/PBS. 500 μL of a 2 mM peptide solution in 1% BSA/PBS was prepared and diluted 1:10 in 500 μL a total of three times to make peptide inhibitor concentrations.
(§5) 200 μL of D93 or HUI77 at 200 ng/mL solution was combined with 200 μL of peptide or antibody inhibitor solution and incubated for 15 minutes at room temperature.
(§6) D93 or HUI77 with various concentrations of inhibitors (2 mM, 0.2 mM, 0.02 mM, and 0.002 mM) were added to microplate wells and incubated for 1 hour at 25° C. The plate was washed 3× in PBST as above.
(§7) To each microtiter plate well, 100 μL of diluted anti-human IgG or anti-mouse IgM conjugated to horseradish peroxidase (HRP) in PBST was added and incubated for one hour at 25° C.: (a) for D93: Goat anti-human IgG-HRP (Jackson ImmunoResearch, Catalog No. 109-035-088) was used at 1:20,000 and (b) for HUI77: Goat anti-mouse IgM-HRP was used at 1:4,000. Plates were washed 3× in PBST as above.
(§8) Tetramethylbenzidine (TMB) substrate (100 μL; Pierce Chemicals)) was added to wells and the plates were allowed to develop at room temperature for 15 minutes in the dark. Substrate development was stopped by adding 50 μL/well of 2N H2SO4. The microtiter […] plates were read at 450 nm within five minutes of adding the H2SO4. Reactivity was measured with a microplate reader (Molecular Devices, Sunnyvale, Calif.) at a wavelength of 450 nm and analyzed using SOFTMax® PRO4.0 (Molecular Devices). All samples were tested in triplicate.
(§9) Individual peptides with amino acid substitutions and deletions were also synthesized based on the primary and secondary peptide arrays. […] The inhibitory activity of the individual peptides was tested by ELISA as previously described to measure binding of D93 or HUI77 to denatured collagen where peptides and antibodies were prepared at a 2× concentration and pre-incubated for 15 minutes prior to adding to microtiter plates coated with dn-collagen.
(§10) 96-well plates were coated with 100 μL/well of denatured (dn) collagen IV at 10 μg/mL in phosphate buffered saline (PBS) overnight at 4° C. followed by washing the plates in an automated plate washer 3 times in PBS containing 0.05% (v/v) Tween-20 (PBST). Non-specific binding was prevented by blocking the wells by adding 300 μL/well of 1% bovine serum albumin (BSA) (w/v) in PBS for 1 hour (hr) at 25° C. The plates were washed as above.
(§11) Solutions of D93 and HUI77 antibodies were prepared with various concentrations of inhibitor and incubated for 15 minutes. Briefly, 20 mLs of D93 or HUI77 were prepared at 200 ng/mL in 1% BSA/PBS. Solutions of peptide inhibitors (2 mM, 0.2 mM, […]) were prepared in 1% BSA/PBS. Equal volumes of antibodies and peptide inhibitors were combined: 200 μL of D93 or HUI77 (200 ng/mL solution) with 200 μL of each peptide solution.
(§12) 100 μL/well of D93 or HUI77 at 100 ng/mL with various concentrations of inhibitors were added to the wells in triplicate and incubated for 1 hour at 25° C. The plates were washed as described above.
(§13) 100 μL/well of secondary horseradish peroxidase (HRP)-conjugated antibody in PBST was added to each well and incubated for 1 hour (hr) at 25° C. […]

[2] = test system: HUI77 binding to denatured collagen IV; test: Competition ELISA: synthetic peptides blocking HUI77 binding to heat denatured collagen IV; set-up: species or system human
Description: as §1, §2, §3, §4, §5, §6, §7, §8, §9, §10, §11, §12, §13

[3] = peptide inhibitor concentration 1 μM, average of two studies, vs 1% BSA/PBS alone
[4] = peptide inhibitor concentration 10 μM, average of two studies, vs 1% BSA/PBS alone
[5] = peptide inhibitor concentration 100 μM, average of two studies, vs 1% BSA/PBS alone
[6] = peptide inhibitor concentration 1000 μM, average of two studies, vs 1% BSA/PBS alone
[7] = peptide inhibitor concentration 10 μM, average of two studies
[8] = peptide inhibitor concentration 100 μM, average of two studies
[9] = peptide inhibitor concentration 1000 μM, average of two studies
[10] = peptide inhibitor concentration 10 μM, asterisk (*): data from a separate assay
[11] = peptide inhibitor concentration 100 μM, asterisk (*): data from a separate assay
[12] = peptide inhibitor concentration 1000 μM, asterisk (*): data from a separate assay

| Substance | % INHIBITION OF BINDING OF D93 TO HUMAN DENATURED-COLLAGEN IV [1, 3] | % INHIBITION OF BINDING OF D93 TO HUMAN DENATURED-COLLAGEN IV [1, 4] | % INHIBITION OF BINDING OF D93 TO HUMAN DENATURED-COLLAGEN IV [1, 5] | % INHIBITION OF BINDING OF D93 TO HUMAN DENATURED-COLLAGEN IV [1, 6] | % INHIBITION OF BINDING OF HUI77 TO DENATURED COLLAGEN IV [2, 7] | % INHIBITION OF BINDING OF HUI77 TO DENATURED COLLAGEN IV [2, 8] | % INHIBITION OF BINDING OF HUI77 TO DENATURED COLLAGEN IV [2, 9] | % INHIBITION OF BINDING OF D93 TO HUMAN DENATURED-COLLAGEN IV ([1]; peptide inhibitor concentration 1 μM, asterisk (*): data from a separate assay) | % INHIBITION OF BINDING OF D93 TO HUMAN DENATURED-COLLAGEN IV [1, 10] | % INHIBITION OF BINDING OF D93 TO HUMAN DENATURED-COLLAGEN IV [1, 11] | % INHIBITION OF BINDING OF D93 TO HUMAN DENATURED-COLLAGEN IV [1, 12] | % INHIBITION OF BINDING OF HUI77 TO DENATURED COLLAGEN IV [2, 10] | % INHIBITION OF BINDING OF HUI77 TO DENATURED COLLAGEN IV [2, 11] | % INHIBITION OF BINDING OF HUI77 TO DENATURED COLLAGEN IV [2, 12] |
| --- | --- | --- | --- | --- | --- | --- | --- | --- | --- | --- | --- | --- | --- | --- |
| PGPPGPPGPY (PGP[Hyp]GP[Hyp]GPY) [SEQ ID NO: 28] | 33.5% | 83% | 93.5% | 93.5% | 7% | 16% | 86.5% |  |  |  |  |  |  |  |
| LPGPPGPPGP (LPGP[Hyp]GP[Hyp]GP) [SEQ ID NO: 20] | 12% | 41.5% | 89% | 92.5% | 10% | 14% | 73% |  |  |  |  |  |  |  |
| LPGFPG [SEQ ID NO: 38, reference compound] |  |  |  |  |  |  |  | 5.4* % | 7.8* % | 8.3* % | 11.6* % | 10.2* % | 0* % | 3.7* % |
| G-P-Hyp-G-P-Hyp-G-P-Y (GP[Hyp]GP[Hyp]GPY) [SEQ ID NO: 30] | 33% | 82.5, % | 94% | 94% | 8.5% | 12% | 78% |  | 79.9* % | 90.3% |  |  | 0% | 63% |
| G-P-Hyp-G (GP[Hyp]G) [SEQ ID NO: 34] | 9.5% | 6.5% | 11% | 52% | 6.5% | 9% | 14% |  |  |  |  |  |  |  |
